{"source": "paper PMC10101059", "about": "“Rational Design of Stapled Antimicrobial Peptides to Enhance Stability and In Vivo Potency against Polymicrobial Sepsis” (Microbiology Spectrum, 2023)", "key": {"NDM1 K. pneumoniae": {"tested_on": "NDM1 K. pneumoniae", "assay": "microbe, parasite or virus in culture", "type": "cell-based, Klebsiella pneumoniae"}, "MDR A. baumannii 2982": {"tested_on": "MDR A. baumannii 2982", "assay": "microbe, parasite or virus in culture", "type": "cell-based, Acinetobacter baumannii", "experimental": "(§1) The FICI was measured using a standard checkerboard microdilution assay ([57]). Two-fold dilutions of antibiotics were made across the x axis, and two-fold peptide dilutions were made across the y axis. Next, bacteria were added at 5 × 10^5 CFU/well (A. baumannii), followed by incubation at 37 ± 2°C for 16 to 20 h. FIC indices were calculated according to the following equations: FICI = FIC1 + FIC2; FIC1 = (MIC12 combined)/MIC1; FIC2 = (MIC12 combined)/MIC2. The combined efficacy was estimated as follows: FICI ≤ 0.5, synergistic; 0.5 to 1, additive; 1 to 2, indifferent; ≥2, antagonistic."}, "MDR A. baumannii 14B001": {"tested_on": "MDR A. baumannii 14B001", "assay": "microbe, parasite or virus in culture", "type": "cell-based, Acinetobacter baumannii", "experimental": "as §1"}, "MDR A. baumannii 1019": {"tested_on": "MDR A. baumannii 1019", "assay": "microbe, parasite or virus in culture", "type": "cell-based, Acinetobacter baumannii", "experimental": "as §1"}, "MDR A. baumannii 921": {"tested_on": "MDR A. baumannii 921", "assay": "microbe, parasite or virus in culture", "type": "cell-based, Acinetobacter baumannii", "experimental": "as §1"}, "MDR A. baumannii 2962": {"tested_on": "MDR A. baumannii 2962", "assay": "microbe, parasite or virus in culture", "type": "cell-based, Acinetobacter baumannii", "experimental": "as §1"}, "MDR A. baumannii 1607": {"tested_on": "MDR A. baumannii 1607", "assay": "microbe, parasite or virus in culture", "type": "cell-based, Acinetobacter baumannii", "experimental": "as §1"}, "MDR A. baumannii 1702": {"tested_on": "MDR A. baumannii 1702", "assay": "microbe, parasite or virus in culture", "type": "cell-based, Acinetobacter baumannii", "experimental": "as §1"}, "S enterica": {"tested_on": "S enterica", "assay": "Checkerboard microdilution assay (FICI)", "type": "cell-based, Salmonella enterica"}, "E. coli": {"tested_on": "E. coli", "assay": "microbe, parasite or virus in culture", "type": "cell-based, Escherichia coli"}, "MDR A. baumannii 1033": {"tested_on": "MDR A. baumannii 1033", "assay": "Checkerboard microdilution assay (FICI)", "type": "cell-based, Acinetobacter baumannii", "experimental": "as §1"}, "MDR A. baumannii 3618": {"tested_on": "MDR A. baumannii 3618", "assay": "Checkerboard microdilution assay (FICI)", "type": "cell-based, Acinetobacter baumannii", "experimental": "as §1"}, "MDR A. baumannii 2997": {"tested_on": "MDR A. baumannii 2997", "assay": "Checkerboard microdilution assay (FICI)", "type": "cell-based, Acinetobacter baumannii", "experimental": "as §1"}, "MDR A. baumannii 2998": {"tested_on": "MDR A. baumannii 2998", "assay": "Checkerboard microdilution assay (FICI)", "type": "cell-based, Acinetobacter baumannii", "experimental": "as §1"}, "MDR A. baumannii 2088": {"tested_on": "MDR A. baumannii 2088", "assay": "Checkerboard microdilution assay (FICI)", "type": "cell-based, Acinetobacter baumannii", "experimental": "as §1"}, "E. aerogenes": {"tested_on": "E. aerogenes", "assay": "microbe, parasite or virus in culture", "type": "cell-based, Enterobacter aerogenes"}, "P. aeruginosae": {"tested_on": "P. aeruginosae", "assay": "microbe, parasite or virus in culture", "type": "cell-based, Pseudomonas aeruginosa"}, "[1]": {"conditions": "MIC of each agent in combination, TP4-3 and D"}, "[2]": {"conditions": "Acinetobacter baumannii, read-out: Single drug treatment MIC"}}, "data": [{"molecule": "C[C@H]1c2cccc(O)c2C(=O)C2=C(O)[C@]3(O)C(=O)C(C(N)=O)=C(O)[C@@H](N(C)C)[C@@H]3[C@@H](O)[C@@H]21", "note": "[D, doxycycline]", "values": [{"measurement": "MIC", "setting": "NDM1 K. pneumoniae; Klebsiella pneumoniae, read-out: Single drug treatment MIC", "result": 25, "unit": "µM"}, {"measurement": "TP4-3 and meropenem combined MIC", "setting": "NDM1 K. pneumoniae; [1]", "result": 3.13, "unit": "µM"}, {"measurement": "MIC", "setting": "MDR A. baumannii 2982; [2]", "result": 50, "unit": "µM"}, {"measurement": "TP4-3 and meropenem combined MIC", "setting": "MDR A. baumannii 2982; [1]", "result": 25, "unit": "µM"}, {"measurement": "MIC", "setting": "MDR A. baumannii 14B001; [2]", "result": 50, "unit": "µM"}, {"measurement": "TP4-3 and meropenem combined MIC", "setting": "MDR A. baumannii 14B001; [1]", "result": 50, "unit": "µM"}, {"measurement": "MIC", "setting": "MDR A. baumannii 1019; [2]", "result": 100, "unit": "µM"}, {"measurement": "TP4-3 and meropenem combined MIC", "setting": "MDR A. baumannii 1019; [1]", "result": 12.5, "unit": "µM"}, {"measurement": "MIC", "setting": "MDR A. baumannii 921; [2]", "result": 200, "unit": "µM"}, {"measurement": "TP4-3 and meropenem combined MIC", "setting": "MDR A. baumannii 921; [1]", "result": 25, "unit": "µM"}, {"measurement": "MIC", "setting": "MDR A. baumannii 2962; [2]", "result": 100, "unit": "µM"}, {"measurement": "TP4-3 and meropenem combined MIC", "setting": "MDR A. baumannii 2962; [1]", "result": 25, "unit": "µM"}, {"measurement": "MIC", "setting": "MDR A. baumannii 1607; [2]", "result": 100, "unit": "µM"}, {"measurement": "TP4-3 and meropenem combined MIC", "setting": "MDR A. baumannii 1607; [1]", "result": 25, "unit": "µM"}, {"measurement": "MIC", "setting": "MDR A. baumannii 1702; [2]", "result": 50, "unit": "µM"}, {"measurement": "TP4-3 and meropenem combined MIC", "setting": "MDR A. baumannii 1702; [1]", "result": 12.5, "unit": "µM"}, {"measurement": "TP4-3 and meropenem combined MIC", "setting": "S enterica; [1]", "result": 1.56, "unit": "µM"}, {"measurement": "MIC", "setting": "S enterica; Salmonella enterica, read-out: Single drug treatment MIC", "result": 6.25, "unit": "µM"}, {"measurement": "MIC", "setting": "E. coli; Escherichia coli, read-out: Single drug treatment MIC", "result": 50, "unit": "µM"}, {"measurement": "TP4-3 and meropenem combined MIC", "setting": "E. coli; [1]", "result": 0.78, "unit": "µM"}, {"measurement": "MIC", "setting": "MDR A. baumannii 1033; [2]", "result": 50, "unit": "µM"}, {"measurement": "TP4-3 and meropenem combined MIC", "setting": "MDR A. baumannii 1033; [1]", "result": 12.5, "unit": "µM"}, {"measurement": "MIC", "setting": "MDR A. baumannii 3618; [2]", "result": 100, "unit": "µM"}, {"measurement": "TP4-3 and meropenem combined MIC", "setting": "MDR A. baumannii 3618; [1]", "result": 25, "unit": "µM"}, {"measurement": "MIC", "setting": "MDR A. baumannii 2997; [2]", "result": 50, "unit": "µM"}, {"measurement": "TP4-3 and meropenem combined MIC", "setting": "MDR A. baumannii 2997; [1]", "result": 25, "unit": "µM"}, {"measurement": "MIC", "setting": "MDR A. baumannii 2998; [2]", "result": 50, "unit": "µM"}, {"measurement": "TP4-3 and meropenem combined MIC", "setting": "MDR A. baumannii 2998; [1]", "result": 12.5, "unit": "µM"}, {"measurement": "MIC", "setting": "MDR A. baumannii 2088; [2]", "result": 100, "unit": "µM"}, {"measurement": "TP4-3 and meropenem combined MIC", "setting": "MDR A. baumannii 2088; [1]", "result": 12.5, "unit": "µM"}, {"measurement": "MIC", "setting": "E. aerogenes; Klebsiella aerogenes, read-out: Single drug treatment MIC", "result": 3.13, "unit": "µM"}, {"measurement": "TP4-3 and meropenem combined MIC", "setting": "E. aerogenes; [1]", "result": 0.78, "unit": "µM"}, {"measurement": "TP4-3 and meropenem combined MIC", "setting": "P. aeruginosae; [1]", "result": 12.5, "unit": "µM"}, {"measurement": "MIC", "setting": "P. aeruginosae; Pseudomonas aeruginosa, read-out: Single drug treatment MIC", "result": 6.25, "unit": "µM"}]}]}
